According to US6812251B2, “Taurine compounds” (priority 2001, dated 2004):

Experiments:
[1] = system: PA1 human ovarian tumor cells; test: Tumor cell growth inhibition, PA1 cells (cell counting); type: cell-based; conditions: PA-1, 5-100 μM, 3 d (72 h) exposure, electronic cell counting, mean ± SE, read-out: IC50 (concentration required to inhibit cell number by 50%)
[2] = Growth inhibition of a panel of cell lines by taurolidine; type: cell-based; conditions: range over all cell lines evaluated; read-out: IC50s, growth inhibition
[3] = system: DU-145 human prostate tumor cells; test: Flow cytometry (propidium iodide) apoptosis, sub-G0/G1 peak; type: cell-based; conditions: DU-145 cells, 50 μM, 24 h
Stability in solution = type: physicochemical
Excerpt: The prolonged stability is an advantage over taurolidine.

O=S1(=O)CCN(CN2CCS(=O)(=O)NC2)CN1 [Taurolidine, Bis-(1,1-dioxoperhydro-1,2,4-thiadiazinyl-4)methane]
IC50 [1]: 11.4 ± 1.8 µM
IC50 [2]: 9.6 to 45 µM
% apoptosis (sub-G0/G1 peak area) [3]: 12.27%
stability in solution (Stability in solution): very unstable in solution and spontaneously decomposes
